# From patent US20140073651A1, “BENZAMIDE DERIVATIVES AS P2X7 RECEPTOR ANTAGONISTS” (Actelion Pharmaceuticals Ltd., priority 2011, published 2014)
# Target: T1, human recombinant P2X7 receptor (Homo sapiens, UniProt Q99572)
# T1 construct: expressed in transfected cells
# T1 sequence (Q99572 1-595): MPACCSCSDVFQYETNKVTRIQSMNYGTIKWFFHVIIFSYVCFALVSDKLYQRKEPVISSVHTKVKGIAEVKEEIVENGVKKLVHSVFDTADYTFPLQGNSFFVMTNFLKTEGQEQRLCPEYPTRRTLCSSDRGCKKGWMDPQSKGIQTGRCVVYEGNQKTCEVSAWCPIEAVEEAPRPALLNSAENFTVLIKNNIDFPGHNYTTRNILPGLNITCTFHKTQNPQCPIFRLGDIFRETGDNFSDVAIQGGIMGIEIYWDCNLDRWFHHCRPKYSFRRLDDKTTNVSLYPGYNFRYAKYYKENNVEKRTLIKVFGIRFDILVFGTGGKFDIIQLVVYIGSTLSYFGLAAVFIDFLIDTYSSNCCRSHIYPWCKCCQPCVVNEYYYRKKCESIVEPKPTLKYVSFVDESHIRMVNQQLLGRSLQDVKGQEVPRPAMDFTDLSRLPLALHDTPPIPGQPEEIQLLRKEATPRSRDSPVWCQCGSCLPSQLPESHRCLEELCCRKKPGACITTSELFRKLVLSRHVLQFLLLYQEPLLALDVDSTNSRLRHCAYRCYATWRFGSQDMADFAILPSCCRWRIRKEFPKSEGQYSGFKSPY
# Assay: YO-PRO assay (YO-PRO-1 uptake) in HEK cells stably expressing P2X7
# Format: cell-based
# Details: HEK-293 cells expressing human recombinant P2X7 receptor; ATP 250 μM, 90 minutes; YO-PRO-1 fluorescence (FLIPR tetra); read-out: IC50 (antagonistic activity with respect to the P2X7 receptor)
# Outline: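 Antagonist serially diluted (duplicates) on P2X7-expressing HEK cells in buffer with 0.5 μM YO-PRO-1; dye uptake followed on FLIPR Tetra over four time points. IC50 from maximum fluorescence intensity versus compound concentration.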
row,SMILES,IC50 [nM]
1,"O=C(NCC1(O)CCCCC1)c1cc(Nc2cnccn2)ccc1Cl [Example 78, 2-Chloro-N-(1-hydroxy-cyclohexylmethyl)-5-(pyrazin-2-ylamino)-benzamide]",439
2,"CN(C)c1cncc(N(C)c2ccc(Cl)c(C(=O)NCC3(O)CCCCC3)c2)n1 [Example 84, 2-Chloro-5-[(6-dimethylamino-pyrazin-2-yl)-methyl-amino]-N-(1-hydroxy-cyclohexylmethyl)-benzamide]",65
3,"CN(c1ccc(Cl)c(C(=O)NCC2(O)CCCCC2)c1)c1cncc(=O)[nH]1 [Example 85, 2-Chloro-N-(1-hydroxy-cyclohexylmethyl)-5-[methyl-(6-oxo-1,6-dihydro-pyrazin-2-yl)-amino]-benzamide]",177
4,"COc1cnc(N(C)c2ccc(Cl)c(C(=O)NCC3(O)CCCCC3)c2)cn1 [Example 88, 2-Chloro-N-(1-hydroxy-cyclohexylmethyl)-5-[(5-methoxy-pyrazin-2-yl)-methyl-amino]-benzamide]",302
5,"CN(c1ccc(Cl)c(C(=O)NCC2(O)CCCCC2)c1)c1ccc(Cl)nn1 [Example 89, 2-Chloro-5-[(6-chloro-pyridazin-3-yl)-methyl-amino]-N-(1-hydroxy-cyclohexylmethyl)-benzamide]",271
6,"COc1ccc(N(C)c2ccc(Cl)c(C(=O)NCC3(O)CCCCC3)c2)nn1 [Example 91, 2-Chloro-N-(1-hydroxy-cyclohexylmethyl)-5-[(6-methoxy-pyridazin-3-yl)-methyl-amino]-benzamide]",354
7,"O=C(NCC1(O)CCCCC1)c1cc(Nc2ccccn2)ccc1Cl [Example 92, 2-Chloro-N-(1-hydroxy-cyclohexylmethyl)-5-(pyridin-2-ylamino)-benzamide]",82
8,"O=C(NCC1(O)CCCCC1)c1cc(Nc2cccc(=O)[nH]2)ccc1Cl [Example 94, 2-Chloro-N-(1-hydroxy-cyclohexylmethyl)-5-(6-oxo-1,6-dihydro-pyridin-2-ylamino)-benzamide]",160
9,"Cn1c(Nc2ccc(Cl)c(C(=O)NCC3(O)CCCCC3)c2)cccc1=O [Example 96, 2-Chloro-N-(1-hydroxy-cyclohexylmethyl)-5-(1-methyl-6-oxo-1,6-dihydro-pyridin-2-ylamino)-benzamide]",123
10,"COCCn1c(Nc2ccc(Cl)c(C(=O)NCC3(O)CCCCC3)c2)cccc1=O [Example 97, 2-Chloro-N-(1-hydroxy-cyclohexylmethyl)-5-[1-(2-methoxy-ethyl)-6-oxo-1,6-dihydro-pyridin-2-ylamino]-benzamide]",317
11,"Cn1cccc(Nc2ccc(Cl)c(C(=O)NCC3(O)CCCCC3)c2)c1=O [Example 99, 2-Chloro-N-(1-hydroxy-cyclohexylmethyl)-5-(1-methyl-2-oxo-1,2-dihydro-pyridin-3-ylamino)-benzamide]",148
12,"CN(c1ccc(Cl)c(C(=O)NCC2(O)CCCCC2)c1)c1ccnn1C [Example 101, 2-Chloro-N-(1-hydroxy-cyclohexylmethyl)-5-[methyl-(2-methyl-2H-pyrazol-3-yl)-amino]-benzamide]",319
13,"O=C(NCC1(O)CCCCC1)c1cc(Oc2ccnc(Cl)c2)ccc1Cl [Example 104, 2-Chloro-5-(2-chloro-pyridin-4-yloxy)-N-(1-hydroxy-cyclohexylmethyl)-benzamide]",100
14,"O=C(NCC1(O)CCCCC1)c1cc(Oc2ccccn2)ccc1Cl [Example 105, 2-Chloro-N-(1-hydroxy-cyclohexylmethyl)-5-(pyridin-2-yloxy)-benzamide]",47
15,"O=C(NCC1(O)CCCCC1)c1cc(Oc2ccncc2)ccc1Cl [Example 106, 2-Chloro-N-(1-hydroxy-cyclohexylmethyl)-5-(pyridin-4-yloxy)-benzamide]",1720
16,"O=C(NCC1(O)CCCCC1)c1cc(Oc2cccnc2)ccc1Cl [Example 107, 2-Chloro-N-(1-hydroxy-cyclohexylmethyl)-5-(pyridin-3-yloxy)-benzamide]",70
17,"CNc1cccc(Oc2ccc(Cl)c(C(=O)NCC3(O)CCCCC3)c2)n1 [Example 109, 2-Chloro-N-(1-hydroxy-cyclohexylmethyl)-5-(6-methylamino-pyridin-2-yloxy)-benzamide]",53
18,"CN(C)c1cccc(Oc2ccc(Cl)c(C(=O)NCC3(O)CCCCC3)c2)n1 [Example 110, 2-Chloro-5-(6-dimethylamino-pyridin-2-yloxy)-N-(1-hydroxy-cyclohexylmethyl)-benzamide]",122
19,"O=C(NCC1(O)CCCCC1)c1cc(Oc2cccc(=O)[nH]2)ccc1Cl [Example 112, 2-Chloro-N-(1-hydroxy-cyclohexylmethyl)-5-(6-oxo-1,6-dihydro-pyridin-2-yloxy)-benzamide]",43

# The remaining compounds from weak to strong by IC50, led by results:
row,IC50 [nM],SMILES
1,1430,"COCCN(c1ccc(Cl)c(C(=O)NCC2(O)CCCCC2)c1)c1cnccn1 [Example 80, 2-Chloro-N-(1-hydroxy-cyclohexylmethyl)-5-[(2-methoxy-ethyl)-pyrazin-2-yl-amino]-benzamide]"
2,905,"CN(c1ccc(Cl)c(C(=O)NCC2(O)CCCCC2)c1)c1ccc(=O)[nH]n1 [Example 90, 2-Chloro-N-(1-hydroxy-cyclohexylmethyl)-5-[methyl-(6-oxo-1,6-dihydro-pyridazin-3-yl)-amino]-benzamide]"
3,352,"CN(c1ccc(Cl)c(C(=O)NCC2(O)CCCCC2)c1)c1cnccn1 [Example 79, 2-Chloro-N-(1-hydroxy-cyclohexylmethyl)-5-(methyl-pyrazin-2-yl-amino)-benzamide]"
4,351,"CN(c1ccc(Cl)c(C(=O)NCC2(O)CCCCC2)c1)c1cccc(=O)[nH]1 [Example 95, 2-Chloro-N-(1-hydroxy-cyclohexylmethyl)-5-[methyl-(6-oxo-1,6-dihydro-pyridin-2-yl)-amino]-benzamide]"
5,332,"COCCn1c(N(C)c2ccc(Cl)c(C(=O)NCC3(O)CCCCC3)c2)cccc1=O [Example 98, 2-Chloro-N-(1-hydroxy-cyclohexylmethyl)-5-{[1-(2-methoxy-ethyl)-6-oxo-1,6-dihydro-pyridin-2-yl]-methyl-amino}-benzamide]"
6,245,"CN(c1ccc(Cl)c(C(=O)NCC2(O)CCCCC2)c1)c1cncc(Cl)n1 [Example 81, 2-Chloro-5-[(6-chloro-pyrazin-2-yl)-methyl-amino]-N-(1-hydroxy-cyclohexylmethyl)-benzamide]"
7,217,"Cn1nccc1Nc1ccc(Cl)c(C(=O)NCC2(O)CCCCC2)c1 [Example 100, 2-Chloro-N-(1-hydroxy-cyclohexylmethyl)-5-(2-methyl-2H-pyrazol-3-ylamino)-benzamide]"
8,190,"CN(c1ccc(Cl)c(C(=O)NCC2(O)CCCCC2)c1)c1cnc(Cl)cn1 [Example 87, 2-Chloro-5-[(5-chloro-pyrazin-2-yl)-methyl-amino]-N-(1-hydroxy-cyclohexylmethyl)-benzamide]"
9,111,"CN(c1ccc(Cl)c(C(=O)NCC2(O)CCCCC2)c1)c1ccccn1 [Example 93, 2-Chloro-N-(1-hydroxy-cyclohexylmethyl)-5-(methyl-pyridin-2-yl-amino)-benzamide]"
10,96,"Cn1c(Oc2ccc(Cl)c(C(=O)NCC3(O)CCCCC3)c2)cccc1=O [Example 113, 2-Chloro-N-(1-hydroxy-cyclohexylmethyl)-5-(1-methyl-6-oxo-1,6-dihydro-pyridin-2-yloxy)-benzamide]"
11,76,"COc1cncc(N(C)c2ccc(Cl)c(C(=O)NCC3(O)CCCCC3)c2)n1 [Example 82, 2-Chloro-N-(1-hydroxy-cyclohexylmethyl)-5-[(6-methoxy-pyrazin-2-yl)-methyl-amino]-benzamide]"
12,64,"O=C(NCC1(O)CCCCC1)c1cc(Oc2cccc(Cl)n2)ccc1Cl [Example 108, 2-Chloro-5-(6-chloro-pyridin-2-yloxy)-N-(1-hydroxy-cyclohexylmethyl)-benzamide]"
13,61,"CN(c1ccc(Cl)c(C(=O)NCC2(O)CCCCC2)c1)c1nccnc1Cl [Example 86, 2-Chloro-5-[(3-chloro-pyrazin-2-yl)-methyl-amino]-N-(1-hydroxy-cyclohexylmethyl)-benzamide]"
14,57,"CNc1cncc(N(C)c2ccc(Cl)c(C(=O)NCC3(O)CCCCC3)c2)n1 [Example 83, 2-Chloro-N-(1-hydroxy-cyclohexylmethyl)-5-[methyl-(6-methylamino-pyrazin-2-yl)-amino]-benzamide]"
15,46,"O=C(NCC1(O)CCCCC1)c1cc(Oc2cc(F)ccn2)ccc1Cl [Example 103, 2-Chloro-5-(4-fluoro-pyridin-2-yloxy)-N-(1-hydroxy-cyclohexylmethyl)-benzamide]"
16,37,"O=C(NCC1(O)CCCCC1)c1cc(Oc2cccc(F)n2)ccc1Cl [Example 102, 2-Chloro-5-(6-fluoro-pyridin-2-yloxy)-N-(1-hydroxy-cyclohexylmethyl)-benzamide]"
17,21,"COc1cccc(Oc2ccc(Cl)c(C(=O)NCC3(O)CCCCC3)c2)n1 [Example 111, 2-Chloro-N-(1-hydroxy-cyclohexylmethyl)-5-(6-methoxy-pyridin-2-yloxy)-benzamide]"
